The target of experiment [1] is T1, human recombinant ETB receptors (Homo sapiens, UniProt P24530).
T1 construct: expressed in transfected cells; host or cells: CHO cells (microsomal membranes)
T1 sequence (P24530 27-442): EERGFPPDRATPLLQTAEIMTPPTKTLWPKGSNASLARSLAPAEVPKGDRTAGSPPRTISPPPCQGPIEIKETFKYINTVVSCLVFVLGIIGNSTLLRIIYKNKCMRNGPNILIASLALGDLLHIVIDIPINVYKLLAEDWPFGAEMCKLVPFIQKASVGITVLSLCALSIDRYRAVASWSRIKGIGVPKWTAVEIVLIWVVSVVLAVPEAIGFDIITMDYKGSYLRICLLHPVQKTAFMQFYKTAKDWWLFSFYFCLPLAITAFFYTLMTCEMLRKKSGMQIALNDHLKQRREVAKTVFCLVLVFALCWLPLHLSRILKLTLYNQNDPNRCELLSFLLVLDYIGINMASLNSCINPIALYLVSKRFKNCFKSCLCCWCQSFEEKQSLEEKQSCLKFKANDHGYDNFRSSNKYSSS
Nature of the experiment: Inhibition of [125I]ET-1 binding to membranes from CHO cells carrying human ETB receptors. Also: 2.5% DMSO. As for the experimental part:
1) Inhibition of Endothelin Binding to Membranes from CHO Cells Carrying Human ET Receptors:
For competition binding studies, membranes of CHO cells expressing human recombinant ETA or ETB receptors were used. Microsomal membranes from recombinant CHO cells were prepared and the binding assay made as previously described (Breu V., et al, FEBS Lett 1993; 334:210).
The assay is performed in 200 uL 50 mM Tris/HCl buffer, pH 7.4, including 25 mM MnCl2, 1 mM EDTA and 0.5% (w/v) BSA in polypropylene microtiter plates. […]. […] After 2 h, the membranes were filtered on filterplates containing GF/C filters (Unifilterplates from Canberra Packard S. A. Zürich, Switzerland). To each well, 50 uL of scintillation cocktail is added (MicroScint 20, Canberra Packard S. A. Zürich, Switzerland) and the filter plates counted in a microplate counter (TopCount, Canberra Packard S. A. Zürich, Switzerland).
All the test compounds were dissolved, diluted and added in DMSO. […] […].

For experiment [2], the target named is T2, human recombinant ETA receptors (Homo sapiens, UniProt P25101).
T2 construct: expressed in transfected cells; host or cells: CHO cells (microsomal membranes)
T2 sequence (P25101 21-427): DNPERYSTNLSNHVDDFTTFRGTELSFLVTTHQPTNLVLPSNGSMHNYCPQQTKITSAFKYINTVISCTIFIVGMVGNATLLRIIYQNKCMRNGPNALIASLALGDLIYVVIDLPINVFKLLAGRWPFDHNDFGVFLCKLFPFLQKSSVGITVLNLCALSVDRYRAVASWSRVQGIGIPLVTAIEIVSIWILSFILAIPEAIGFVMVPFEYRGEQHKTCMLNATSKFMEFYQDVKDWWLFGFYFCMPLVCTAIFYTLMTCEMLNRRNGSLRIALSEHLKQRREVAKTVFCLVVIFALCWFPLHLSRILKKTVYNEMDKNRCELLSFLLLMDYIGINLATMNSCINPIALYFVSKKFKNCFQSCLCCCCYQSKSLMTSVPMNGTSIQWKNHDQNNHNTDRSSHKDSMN
Nature of the experiment: Inhibition of [125I]ET-1 binding to membranes from CHO cells carrying human ETA receptors.

Experiment [3] deals with T3, ETB receptors (rat tracheal rings) (Rattus norvegicus, UniProt P21451).
T3 construct: The thoracic aorta or trachea were excised, dissected and cut in 3-5 mm rings; from tissue; host or cells: tracheal rings of adult Wistar rats, epithelium removed
T3 sequence (P21451 27-442): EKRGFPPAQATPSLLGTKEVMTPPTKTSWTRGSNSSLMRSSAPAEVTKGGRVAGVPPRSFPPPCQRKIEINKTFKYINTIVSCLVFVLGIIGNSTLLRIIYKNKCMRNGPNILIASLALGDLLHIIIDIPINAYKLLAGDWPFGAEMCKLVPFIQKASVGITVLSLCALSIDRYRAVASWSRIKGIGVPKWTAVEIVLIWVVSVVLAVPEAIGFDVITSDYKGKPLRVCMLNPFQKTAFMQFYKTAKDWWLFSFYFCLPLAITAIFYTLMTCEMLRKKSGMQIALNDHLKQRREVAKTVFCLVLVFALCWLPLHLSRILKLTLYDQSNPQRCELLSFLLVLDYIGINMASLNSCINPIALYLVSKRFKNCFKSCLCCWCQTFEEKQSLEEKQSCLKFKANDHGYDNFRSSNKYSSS
The experiment can be described thus: Inhibition of sarafotoxin S6c-induced contraction of isolated rat tracheal rings. The note with it: contraction induced by sarafotoxin S6c, 10 min incubation, read-out: pA2 value Trachea (converted). Type of experiment: cell-based. How it is done:
(§1) 2) Inhibition of Endothelin-Induced Contractions on Isolated Rat Aortic Rings (ETA Receptors) and Rat Tracheal Rings (ETB Receptors):
(§2) The functional inhibitory potency of the endothelin antagonists was assessed by their inhibition of the contraction induced by endothelin-1 on rat aortic rings (ETA receptors) and of the contraction induced by sarafotoxin S6c on rat tracheal rings (ETB receptors). Adult Wistar rats were anesthetized and exsanguinated. The thoracic aorta or trachea were excised, dissected and cut in 3-5 mm rings. The endothelium/epithelium was removed by gentle rubbing of the intimal surface. Each ring was suspended in a 10 mL isolated organ bath filled with Krebs-Henseleit solution (in mM; NaCl 115, KCl 4.7, MgSO4 1.2, KH2PO4 1.5, NaHCO3 25, CaCl2 2.5, glucose 10) kept at 37° C. and gassed with 95% O2 and 5% CO2. The rings were connected to force transducers and isometric tension was recorded (EMKA Technologies SA, Paris, France). The rings were stretched to a resting tension of 3 g (aorta) or 2 g (trachea). […] The functional inhibitory potency of the test compound was assessed by calculating the concentration ratio, i.e. the shift to the right of the EC50 induced by different concentrations of test compound. […]

Experiment [4] deals with T4, ETA receptors (rat aortic rings) (Rattus norvegicus, UniProt P26684).
T4 construct: The thoracic aorta or trachea were excised, dissected and cut in 3-5 mm rings; from tissue; host or cells: thoracic aorta rings of adult Wistar rats, endothelium removed
T4 sequence (P26684 21-426): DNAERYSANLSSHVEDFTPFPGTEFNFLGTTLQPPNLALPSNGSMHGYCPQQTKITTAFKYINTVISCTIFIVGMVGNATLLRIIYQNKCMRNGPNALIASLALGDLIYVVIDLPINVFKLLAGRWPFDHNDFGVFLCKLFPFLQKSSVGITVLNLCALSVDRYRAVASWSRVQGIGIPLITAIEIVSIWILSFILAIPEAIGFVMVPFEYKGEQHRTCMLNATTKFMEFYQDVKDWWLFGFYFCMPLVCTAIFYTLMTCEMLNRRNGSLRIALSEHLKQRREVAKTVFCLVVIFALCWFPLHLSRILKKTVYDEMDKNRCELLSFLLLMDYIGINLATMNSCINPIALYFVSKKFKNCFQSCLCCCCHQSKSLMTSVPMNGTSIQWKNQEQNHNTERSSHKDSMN
The experiment can be described thus: Inhibition of endothelin-1-induced contraction of isolated rat aortic rings. The conditions noted are these: read-out: pA2 value Aorta (converted). Type of experiment: cell-based. As for the experimental part:
as §1, §2

Turning to `O=C(O)CCNS(=O)(=O)Nc1ncnc(OCCOc2ncc(Br)cn2)c1-c1ccc(Br)cc1` [Example 2], the values for the IC50 in experiment [1] and in experiment [2] were 330 nM and 0.656 nM, respectively. Besides, the figures for the Kb in experiment [3] and in experiment [4] were 794 nM and 6.31 nM, respectively.
For `O=S(=O)(NCCCO)Nc1ncnc(OCCOc2ncc(Br)cn2)c1-c1ccc(Br)cc1` [Example 1, 1-hydroxypropanesulfamic acid[6-(2-(5-bromopyrimid-2-yloxy)-ethoxy)-5-(4-bromophenyl)-pyrimidin-4-yl]-amide], in that order: 322 nM, 0.603 nM, 3160 nM and 100 nM.

The term IC50 denotes the midpoint of a concentration-inhibition curve.

The values are drawn from US7868012B2, “Sulfamides as endothelin receptor antagonists for the treatment of cardiovascular diseases” (Actelion Pharmaceuticals, Ltd., priority 2004, dated 2011).
